The source of these data is PMC8773338, “Discovery Potent of Thiazolidinedione Derivatives as Antioxidant, α-Amylase Inhibitor, and Antidiabetic Agent” (Biomedicines, 2021).

What is called IC50 is the midpoint of a concentration-inhibition curve. The low end stands for greater potency, the high end for weaker potency.

In data set [1] the test system is alloxan-induced diabetic rat model. The settings on record: Wistar (albino), in vivo, 30 days. The source says:
This study used an alloxan-induced diabetic rat model to test the anti-hyperglycemic action of substances (3–6, 9, 11). […] The BGL was monitored for each tested compound at three different doses (50, 100, and 250 μ/Kg) and for five experimental period durations (0, 2, 4, 15, 30 days).
At 50 μ/Kg, we observed no mortality during any of the experiment periods for all tested compounds.
Data analyzed by one way ANOVA followed by LSD test and expressed as mean ± SEM from five observations. TEXT PRINTED IN THE PICTURE: 3: Mortilaty: 20% (250 (m/Kg)); Mortilaty: 10% (100 (m/Kg)); Mortilaty: 0% (50 (m/Kg)) | 4: Mortilaty: 20% (250 (m/Kg)); Mortilaty: 10% (100 (m/Kg)); Mortilaty: 0% (50 (m/Kg)) | 5: Mortilaty: 30% (250 (m/Kg)); Mortilaty: 20% (100 (m/Kg)); Mortilaty: 0% (50 (m/Kg)) | 6: Mortilaty: 20% (250 (m/Kg)); Mortilaty: 10% (100 (m/Kg)); Mortilaty: 0% (50 (m/Kg)) | 9: Mortilaty: 20% (250 (m/Kg)); Mortilaty: 10% (100 (m/Kg)); Mortilaty: 0% (50 (m/Kg)) | 11: Mortilaty: 20% (250 (m/Kg)); Mortilaty: 10% (100 (m/Kg)); Mortilaty: 0% (50 (m/Kg)) DOUBTS OF THE COPYIST ABOUT THIS PICTURE: The control groups NO. (labels 0%, 0%, 0%, overlapping) and DC (labels 50%, 50% and a third that reads 50% or 60%, partly hidden) are not compounds and were left out. / 3, 4, 5, 6, 9, 11, Mortilaty at 50 (m/Kg): the 0% labels are partly overlapped by neighbouring bars and labels; 0% is the best reading. / Which label belongs to which dose series was judged from its position over the bars; several labels overlap.

Data set [2] has the same test system. Nature of the data set: serum lipid profile in alloxan-induced diabetic rats. The class given is in vivo. The settings on record: for LDL value: versus normal value; for CH level: versus normal animals; for serum CH level decrease: compared to the diabetic control group. How it is done: The blood samples (0.5 mL) were withdrawn from the retro-orbital plexus of each rat and the other steps adapted for measuring the biochemical analysis are shown in (Supplementary Materials).
A serious side effect related to diabetes is Hyperlipidemia. Insulin deficiency promotes the adipocytes to generate a fatty acid, hepatic phospholipids and cholesterol. Thus, we measured the levels of (cholesterol “CH”, triglyceride “TG”, high, low and very-low- and high/low and very low density lipoproteins “HDL, LDL and VLDL”) in serum for alloxan-loaded diabetes. […] The serum CH. Level decreased by 40%, 32%, 40%, 48%, 52%, and 43% for 3–6, 9, and 11, respectively, compared to the diabetic control group (Figure 7).
Figure 7 The level of Ch (cholesterol), TG (triglyceride), HDL (high density lipoprotein), LDL (low density lipoprotein) and VLDL (very low density lipoprotein) in serum of hyperglycemic loaded rats. […] Data analyzed by one way ANOVA followed by LSD test and expressed as mean ± SEM from five observations.
2007) dissolved in normal saline (Bodade et al., 2013). The animals were allowed to drink 5% glucose solution overnight to overcome the drug induced hypoglycemia (Gandhi and Sasikumar, 2012; Pareek etal., 2009). Blood samples were taken 48 h after injection of alloxan to ensure that diabetes has been induced (Vijayan et al., 2013), and fasting plasma glucose level of rats was determined using glucose strips. Rats with plasma glucose concentration N 300 mg/dl (Gadadare et al., 2015) were considered diabetic and included in […]
The blood samples (0.5 ml) were withdrawn from the retro-orbital plexus of each rat under mild anesthesia using a glass capillary tube after fasting for 6 h. Blood samples were centrifuged at 3000 rpm for 15 min. The serum was kept at −80 °C until analyzed. Speciﬁc reagent kits were used to determine levels of serum triglyceride (TG), serum cholesterol (CH), serum low density lipoproteins (LDL), serum high density lipoproteins (HDL) for assessing the lipid proﬁle.
(§1) Data are expressed as mean ± S.E. Data analysis was done using one way analysis of variance (ANOVA) followed by least significant difference (LSD) test for multiple comparisons. Difference was considered significant when p is less than 0.05. SPSS (version 11) program was used to carry out these statistical tests.

In the next data set the target is T1, α-amylase (Homo sapiens, UniProt P04746).
T1 sequence (P04746 16-511): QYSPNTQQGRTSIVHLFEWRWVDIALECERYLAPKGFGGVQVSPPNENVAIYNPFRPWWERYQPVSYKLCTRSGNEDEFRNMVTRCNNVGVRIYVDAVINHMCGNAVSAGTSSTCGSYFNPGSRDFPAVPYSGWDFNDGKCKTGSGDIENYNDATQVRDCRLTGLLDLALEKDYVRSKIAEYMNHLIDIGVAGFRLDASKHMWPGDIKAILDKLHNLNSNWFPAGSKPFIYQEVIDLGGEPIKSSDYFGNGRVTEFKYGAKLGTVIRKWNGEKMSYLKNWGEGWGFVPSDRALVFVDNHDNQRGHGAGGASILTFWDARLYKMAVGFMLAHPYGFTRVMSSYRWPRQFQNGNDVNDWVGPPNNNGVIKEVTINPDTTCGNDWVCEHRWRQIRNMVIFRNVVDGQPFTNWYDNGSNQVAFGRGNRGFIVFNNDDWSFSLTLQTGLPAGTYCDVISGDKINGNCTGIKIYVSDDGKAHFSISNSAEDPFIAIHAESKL
Nature of the data set: in vitro inhibition of α-amylase assay. The class given is biochemical. The settings on record: six concentrations 5-40 µg/mL, non-linear regression. The source says:
The α-amylase activity of the probe compounds determined using a method.
This study examined the inhibitory potential for the (3–6, 9, and 11) compounds against α-amylase enzyme. We applied six different concentrations (5,10,15,20,30, and 40) µg/mL for this test. These concentrations were plotted via the inhibition percentage to determine the IC50 (the concentration required to inhibit 50% of the enzyme) using the non-linear regression method.
- inhibition in-vitro of α-Amylase assay:
The α-amylase activity of the compounds were determined using a method in which 250 μL of each compound, or Metformin .HCl, dissolved in ethanol to obtain different concentrations (5, 10, 15, 20,30 and 40 μg/mL ), was mixed with 500 μL of α-amylase (2 U/mL ) in phosphate buffer (100 mM, pH 6.8) and incubated at 37 °C for 10 min. Thereafter, 50 μL of 1% starch, dissolved in the same buffer, was added to the mixture and the samples were incubated again at 37 °C. After 30 min, dinitrosalicylic acid (DNS) colour reagent (1 mL) was added. The (DNS) was prepared by adding 437mg of 3,5- dinitro salicylic acid in 20 mL distilled water to12 g of sodium potassium tartrate in 8 mL of 2 M NaOH, then added distilled water until the solution reach to 40 mL ). the samples were boiled for 10 min in water bath. For non-enzymatic reactions, the assays were performed with a blank containing all of the components except the enzyme. Each concentration was analyzed in three independent experiments run in triplicate.
The percent of inhibition Absorbance was then measured at 540 nm. The percent of inhibition of α-amylase was calculated as following by the formula below:
%inhibition= ((absorbance of blank_absorbance of compound)/absorbance of blank) *100. […]

The test system of data set [3] is alloxan-induced diabetic rat model. The data set can be described thus: blood glucose level in alloxan-induced diabetic rat model. The settings on record: for reduction percentage of blood glucose level: 30-day treatment protocol, compared with the normal control. The class given is in vivo. As to the method:
Healthy male albino Wistar rats (150 ± 20 g) have been obtained as mentioned in Supplementary Materials.
The animals were kept fasting overnight (12 h) before induction of diabetes, which was induced in rats as reported and mentioned in Supplementary Materials.
We obtained the blood samples from the tail vein of all rats, the blood-glucose-level “BGLs” were measured and monitored in all treatment groups at days 0 (basal), 2th, 4th, 15th, and 30th as reported.
This study used an alloxan-induced diabetic rat model to test the anti-hyperglycemic action of substances (3–6, 9, 11). […] The BGL was monitored for each tested compound at three different doses (50, 100, and 250 μ/Kg) and for five experimental period durations (0, 2, 4, 15, 30 days). […]
The animals were kept fasting overnight (12 h) before induction of diabetes. […]
as §1

Data set [4] in a line: DPPH radical scavenging activity. The settings on record: concentrations 0.16-1000 µg/mL. As to the method:
The assay of 2,2-Diphenyl-1-picrylhydrazyl radical (DPPH) was performed according to the method at.
We examined the antioxidant activity of the (3–6, 9, and 11) hybrids using the stable DPPH assay. The antioxidant result was represented as IC50 (the concentration is essential for 50% reduction in the power of H-donation or radical scavenging). […] The increasing scavenging activity may be due to the stabilization of the lone pair in the conjugated system through the presence of the terminal carbonyl and thiazolidinone groups.

Setting [5] is: 100 μ/Kg, in comparison with DC, 4th and 15th time durations.
Where [6] appears, read: 250 μ/Kg, 15th and 30th treatments.
Where [7] appears, read: 250 μ/Kg, 30th time duration of treatment.

Converted amounts (≈) assume the structure as drawn.

In data set [1], `O=C1NC(=O)/C(=C\c2ccc3c(c2)OCO3)S1` [Compound 3] returned a Mortilaty of 0%. Moreover, the LDL value entry in data set [2] (2nd and 15th days) is listed as “can regulate the LDL value to the normal value”. Further, the VLDL entry in data set [2] (2nd to 15th days) is “failed to reach to control value for VLDL”. In data set [2] (30th day), the VLDL level entry is “almost reached to the normal VLDL level” and the LDL value result is “failed to do so”. Moreover, the CH level result in data set [2] (30th day, 50 μ/Kg) is reported as “lower CH level than the normal animals”. Further, the “serum CH level decrease” value in data set [2] (50 μ/Kg) was 40%. Moreover, the 50% inhibitory concentration (IC50) on α-amylase is 173 µM.

For `O=C(CCl)N1C(=O)S/C(=C/c2ccc3c(c2)OCO3)C1=O` [Compound 4], the Mortilaty in data set [1] is given as 0%. Moreover, the “VLDL level of serum” value in data set [2] (all experimental periods, compared to the normal rats) is “below the normal value”. The “serum CH level decrease” value in data set [2] (50 μ/Kg) is on record as 32%. Moreover, the BGL entry in data set [3] (50 μ/Kg, 4th, 15th and 30th) is listed as “moderate reduction in BGL”; in data set [3] (setting [5]) it was “moderate decreases in BGL”. On α-amylase, this compound gave an IC50 of 163 µM.

As for `CC(=O)CN1C(=O)SC(=Cc2ccc3c(c2)OCO3)C1=O` [Compound 5, 5-(benzo[d][1,3]dioxol-5-ylmethylene)-3-(2-oxopropyl) thiazolidine-2,4-dione], the Mortilaty in data set [1] was 0%. Moreover, the VLDL level result in data set [2] (4th, 15th and 30th days) is “regulated the VLDL level to the normal level”. For the same compound, the CH level entry in data set [2] (30th day, 50 μ/Kg) is recorded as “lower CH level than the normal animals”. Further, the “serum CH level decrease” value in data set [2] (50 μ/Kg) is recorded as 40%. In data set [3] (setting [6]), the BGL entry was “promising decreases in BGL”. Further, at α-amylase, inhibition was half-maximal at 59 µM (IC50).

With `O=C(O)CN1C(=O)SC(=Cc2ccc3c(c2)OCO3)C1=O` [Compound 6, 2-(5-(benzo[d][1,3]dioxol-5-ylmethylene)-2,4-dioxothiazolidin-3-yl)acetic acid], the Mortilaty in data set [1] is reported as 0%. The VLDL level entry in data set [2] (4th, 15th and 30th days) was “regulated the VLDL level to the normal level”. Further, in data set [2] (30th day, 50 μ/Kg), the CH level entry is on record as “lower CH level than the normal animals”. The TG level result in data set [2] (30th day, versus normal level, 50 μ/Kg) is listed as “decreased to the normal level”. The “serum CH level decrease” value in data set [2] (50 μ/Kg) was determined as 48%. The “IC50 DPPH radical scavenging” value in data set [4] stood at 10.78 µg/mL (≈ 35.1 µM). In data set [3], the “reduction percentage of blood glucose level” value turned out to be 69.55%. In addition, the BGL entry in data set [3] (50 μ/Kg, 4th, 15th and 30th) is given as “moderate reduction in BGL”; in data set [3] (setting [5]), “moderate decreases in BGL”. Also, in data set [3] (setting [7]), the glucose level entry is “significant reduction in glucose level”. In addition, at α-amylase, 33.4 µM corresponded to half-maximal inhibition (IC50).

Regarding `Cc1nnc(NC(=S)SCC(=O)N2C(=O)S/C(=C/c3ccc4c(c3)OCO4)C2=O)s1` [Compound 9, 2-(5-(Benzo[d][1,3]dioxol-5-ylmethylene)-2,4-dioxothiazolidin-3-yl)-2-oxoethyl (5-Methyl-1,3,4-thiadiazol-2-yl) Carbamodithioate], in data set [2] (4th, 15th and 30th days), the VLDL level result is “regulated the VLDL level to the normal level”. In addition, the CH level result in data set [2] (30th day, 50 μ/Kg) is “lower CH level than the normal animals”. Also, the “serum CH level decrease” value in data set [2] (50 μ/Kg) is given as 52%. In addition, the BGL entry is given as “moderate reduction in BGL” in data set [3] (50 μ/Kg, 4th, 15th and 30th); “moderate decreases in BGL” in data set [3] (setting [5]).

Consider `O=C1CSC(=O)N1CC(=O)N1C(=O)SC(=Cc2ccc3c(c2)OCO3)C1=O` [Compound 11, 5-(Benzo[d][1,3]dioxol-5-ylmethylene)-3-(2-(2,4-dioxothiazolidin-3-yl)acetyl) Thiazolidine-2,4-dione], for which the VLDL result in data set [2] (4th and 30th day) was “regulated only the VLDL of infected rats to normal values”. The CH level result in data set [2] (30th day, 50 μ/Kg) is “lower CH level than the normal animals”. Besides, the “serum CH level decrease” value in data set [2] (50 μ/Kg) was 43%. The “IC50 DPPH radical scavenging” value in data set [4] turned out to be 11.16 µg/mL (≈ 27.5 µM). The “reduction percentage of blood glucose level” value in data set [3] was 66.95%. In addition, the BGL result is reported as “promising reduction in BGL” in data set [3] (50 μ/Kg, p < 0.05, all experiment periods compared to DC group) and “promising decreases in BGL” in data set [3] (setting [6]). Also, the glucose level result in data set [3] (100 μ/Kg, in comparison with DC, 4th, 15th and 30th time durations) is “significant reduction in glucose level”; in data set [3] (setting [7]) it was “significant reduction in glucose level”. This compound gave an IC50 at α-amylase of 49.2 µM.
